Earlier results in patent US20240115591A1, “THERAPEUTIC METHODS AND COMPOSITIONS FOR TREATING BILIARY TRACT CANCER USING DEVIMISTAT” (Cornerstone Pharmaceuticals, Inc., priority 2020, published 2024).

How the values were obtained:
[1] = system: locally advanced or metastatic BTC; settings: for OS (overall survival): 410 patients with locally advanced or metastatic BTC, phase III ABC-02
[2] = ABC-02, patients with advanced BTC

For Nc1ccn([C@@H]2O[C@H](CO)[C@@H](O)C2(F)F)c(=O)n1 [gemcitabine, 2′-deoxy-2′,2′-difluorocytidine (β-isomer)], the “OS (overall survival)” value [1] is given as 8.1 months.
In the case of gemcitabine cisplatin, the “grade 3 and 4 adverse event: abnormal liver function” value [2] is given as 16.7%, the “grade 3 and 4 adverse event: anemia” value [2] is given as 7.6% and the “grade 3 and 4 adverse event: deep vein thrombosis” value [2] is given as 2%. The “grade 3 and 4 adverse event: fatigue” value [2] was 18.7%, the “grade 3 and 4 adverse event: impaired renal function” value [2] was 1.5% and the “grade 3 and 4 adverse event: nausea” value [2] was 4%. The “grade 3 and 4 adverse event: neutropenia” value [2] was 25.3%, the “grade 3 and 4 adverse event: thrombocytopenia” value [2] was 15.7% and the “grade 3 and 4 adverse event: thromboembolic event” value [2] was 3.5%. For the same compound, the “grade 3 and 4 adverse event: vomiting” value [2] was 5.1%, the “grade 3 and 4 adverse event: infection” value (in vivo) was 18.2% and the “OS (overall survival)” value [1] was 11.7 months. The objective response rate ([1]; ABC-02, combination arm) was 26.1%, the “hazard ratio (HR) for OS” value ([1]; gemcitabine cisplatin arm versus gemcitabine alone arm, 95% CI 0.52 to 0.80, p<0.001) was 0.64 and the “historical ORR (CR+PR)” value ([1]; historical estimate from Valle et al. 2010, used as null hypothesis for the planned phase 2) was 25%.
